Measurements reported in patent publication US5750724A, “Indolealkyl derivatives of benzodioxanmethylamine” (American Home Products Corporation, priority 1996, dated 1998).

Columns and labels:
dopamine D2 receptor = target: T1, dopamine D2 receptor (Rattus norvegicus, UniProt P61169); experiment: dopamine D2 receptor affinity, 3H-quinpirole, homogenized rat striatal brain tissue (modified Seemen and Schaus); format: binding
T1 construct: homogenized rat striatal brain tissue; from tissue; host or cells: rat striatum homogenate
Protocol: Affinity for the dopamine D2 receptor was established by a modification of the standard experimental test procedure of Seemen and Schaus, European Journal of Pharmacology 203: 105-109, 1991, wherein homogenized rat striatal brain tissue is incubated with ^3 H-quinpirole and various concentrations of test compound, filtered and washed and counted in a Betaplate scintillation counter.

[1] = target: T2, 5-HT1A serotonin receptor (Rattus norvegicus, UniProt P19327); experiment: displacement of [3H] 8-OHDPAT (dipropylaminotetralin) from the 5-HT1A serotonin receptor (Hall et al.); format: binding; conditions: read-out: 5-HT1A Receptor Affinity IC50
T2 construct: following the procedure of Hall et al., J. Neurochem; 44, 1685 (1985); from tissue
T2 sequence (P19327 1-422): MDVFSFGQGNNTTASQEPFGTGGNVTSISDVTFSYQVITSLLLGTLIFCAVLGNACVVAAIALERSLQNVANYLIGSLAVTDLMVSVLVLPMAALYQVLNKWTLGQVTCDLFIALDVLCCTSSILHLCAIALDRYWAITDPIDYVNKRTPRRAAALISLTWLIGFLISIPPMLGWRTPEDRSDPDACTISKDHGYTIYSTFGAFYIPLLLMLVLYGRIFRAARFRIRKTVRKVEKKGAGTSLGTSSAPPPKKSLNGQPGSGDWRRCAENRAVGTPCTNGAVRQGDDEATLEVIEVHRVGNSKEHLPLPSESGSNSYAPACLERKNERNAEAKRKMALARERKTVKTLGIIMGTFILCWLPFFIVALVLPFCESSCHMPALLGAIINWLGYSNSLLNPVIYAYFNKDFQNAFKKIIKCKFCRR
Description: High affinity for the serotonin 5-HT1A receptor was established by testing the claimed compound's ability to displace [^3 H] 8-OHDPAT (dipropylaminotetralin) from the ^5 -HT1A serotonin receptor following the procedure of Hall et al., J. Neurochem. 44, 1685 (1985). […] The anxiolytic and antidepressant activity of these agents are believed to be, at least partially, due to their 5-HT1A receptor affinity (Vander Maclen et al., Eur. J. Pharmacol. 1986, 129 (1-2) […] and Lucki, J. Clin. Psychiat. 1992, 52, 24-31).

[2] = test system: 3H 5-hydroxytryptamine uptake; experiment: inhibition of 3H 5-hydroxytryptamine uptake, crude synaptosomes from rat frontal cortex (modified Wood and Willie); format: biochemical; conditions: nonspecific uptake in presence of 10 μM fluoxetine, read-out: Inhibition 5-HT Uptake IC50
Protocol: Inhibition of ^3 H 5-hydroxytryptamine uptake was established using a modification of the procedure of Wood and Willie, J. Neurochem. 37:795, 1981. Crude synaptosomes prepared from rat frontal cortex were utilized and nonspecific uptake was defined as that occurring in the presence of excess (10 μM) fluoxetine.

5-HT1A receptors = conditions: European Journal of Pharmacology, 173 (1989), 189; cited from earlier work
[3] = cited from earlier work
[4] = target: T2, 5-HT1A serotonin receptor; conditions: reference agents; cited from earlier work

T1 sequence (P61169 whole entry): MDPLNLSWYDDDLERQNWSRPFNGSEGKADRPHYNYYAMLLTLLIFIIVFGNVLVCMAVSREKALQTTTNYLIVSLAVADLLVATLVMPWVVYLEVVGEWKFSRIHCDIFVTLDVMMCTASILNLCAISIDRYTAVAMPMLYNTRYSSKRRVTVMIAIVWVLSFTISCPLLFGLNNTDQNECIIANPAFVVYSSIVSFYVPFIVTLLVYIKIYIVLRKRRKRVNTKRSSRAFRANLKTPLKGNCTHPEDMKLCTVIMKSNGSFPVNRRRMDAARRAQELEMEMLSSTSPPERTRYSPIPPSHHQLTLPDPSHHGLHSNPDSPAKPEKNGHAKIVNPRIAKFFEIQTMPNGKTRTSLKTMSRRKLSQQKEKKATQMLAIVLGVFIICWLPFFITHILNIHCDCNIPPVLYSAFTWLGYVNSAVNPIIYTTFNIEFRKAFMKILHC

Row | IC50 (dopamine D2 receptor) | IC50 [1] | SMILES | further results
1 | 0.3 nM | 4.85 nM | Oc1ccc2c(c1)OC(CNCCCc1c[nH]c3ccccc13)CO2 (centres unmarked) [Example 15, 3-{[4-(1H-Indol-3-yl)-propylamino]-methyl}-2,3-dihydro-benzo[1,4]dioxin-6-ol] | 
2 | 49.8 nM | 16 nM | Cn1cc(CCCCNCC2COc3ccccc3O2)c2cc(F)ccc21 (centres unmarked) [Example 22, (2,3-Dihydro-benzo[1,4]dioxin-2-ylmethyl)-{4-[5-fluoro-1-methyl-1H-(indole-3-yl)]-butyl}-amine] | 
3 |  |  | CN(C)CCCN1c2ccccc2CCc2ccccc21 [imipramine, reference compound] | IC50 [2]: 120 nM
4 | 1230 nM | 6.74 nM | COc1ccc2c(c1)OC(CN(C)CCCc1c[nH]c3ccc(OC)cc13)CO2 (centres unmarked) [Example 7, (7-Methoxy-2,3-dihydro-benzo[1,4]dioxin-2-ylmethyl)-[3-(5-methoxy-1H-indol-3-yl)-propyl]-methyl-amine] | 
5 |  |  | COc1ccc2[nH]cc(CCNCC3COc4ccccc4O3)c2c1 (centres unmarked) | partial agonist activity at 5-HT1A receptors (in words) (5-HT1A receptors): partial agonist activity at 5-HT1A receptors
6 | 82 nM | 5.7 nM | COc1ccc2c(c1)O[C@@H](CNCCCCc1c[nH]c3ccccc13)CO2 [Example 2, [4-(1H-Indol-3-yl)-butyl]-(7-methoxy-2,3-dihydro-benzo[1,4]dioxin-2-ylmethyl)amine] | 
7 | 45 nM | 2.7 nM | COc1ccc2c(c1)OC(CNCCCc1c[nH]c3ccc(O)cc13)CO2 (centres unmarked) [Example 6, 3-{3-[(7-Methoxy-2,3-dihydro-benzo[1,4]dioxin-2-ylmethyl)-amino]-propyl}-1H-indol-5-ol] | 
8 | 4.75 nM | 0.81 nM | COc1ccc2[nH]cc(CCCCNCC3COc4ccc(NS(C)(=O)=O)cc4O3)c2c1 (centres unmarked) [Example 14, N-(3-{[4-(5-Methoxy-1 H-indol-3-yl)-butylamino]-methyl}-2,3-dihydrobenzo[1,4]dioxin-6-yl)-methanesulfonamide] | 
9 | 13.6 nM | 4.86 nM | c1ccc2c(c1)OCC(CNCCCCc1c[nH]c3ccccc13)O2 (centres unmarked) [Example 16, (2,3-Dihydro-benzo[1,4]dioxin-2-ylmethyl)-[4-(1H-indol-3-yl)-butyl]-amine] | 
10 | 3.5 nM | 3.77 nM | c1ccc2c(c1)OCC(CNCCCc1c[nH]c3ccccc13)O2 (centres unmarked) [Example 17, (2.3-Dihydro-benzo[1,4]dioxin-2-ylmethyl)-[3-(1H-indol-3-yl)-propyl]-amine] | 
11 |  |  | CN(C)C/C=C(/c1ccc(Br)cc1)c1cccnc1 [zimelidine, reference compound] | IC50 [2]: 240 nM
12 | 6.63 nM | 0.56 nM | COc1ccc2[nH]cc(CCCCNCC3COc4ccccc4O3)c2c1 (centres unmarked) [Example 23, (2,3-Dihydro-benzo[1,4]dioxin-2-ylmethyl)-[4-(5-methoxy-1H-indol-3-yl)-butyl]-amine] | 
13 | 1.3 nM | 6 nM | Oc1ccc2c(c1)OC(CNCCCCc1c[nH]c3ccccc13)CO2 (centres unmarked) [Example 3, 3-{[4-(1H-Indol-3-yl)-butylamino}-methyl}-2,3-dihydro-benzo[1,4]dioxin-6-ol] | 
14 | 0.61 nM | 0.35 nM | Oc1ccc2c(c1)OC(CNCCCc1c[nH]c3ccc(O)cc13)CO2 (centres unmarked) [Example 8, 3-{3-[(7-Hydroxy-2,3-dihydro-benzo[1,4]dioxin-2-ylmethyl)-amino]-propyl}-1H-indol-5-ol] | 
15 | 116 nM | 5.6 nM | c1ccc2c(CCCCNC[C@H]3COc4cc5c(cc4O3)OCO5)c[nH]c2c1 [Example 1, [(6,7-Dihydro-1,3-dioxolo[4,5-g][1,4]benzodioxin-6-yl)methyl]-[4-(1H-indol-3-yl)-butyl]-amine] | 
16 | 20.4 nM | 9.29 nM | Cn1cc(CCCNCC2COc3ccc(NS(C)(=O)=O)cc3O2)c2ccccc21 (centres unmarked) [Example 24, N-(3-{[3-(1-Methyl-1H-indol-3-yl)-propylamino]-methyl}-2,3-dihydrobenzo[1,4]dioxin-6-yl)-methanesulfonamide] | 
17 | 0.13 nM | 5.9 nM | Oc1ccc2c(c1)O[C@@H](CNCCCc1c[nH]c3ccccc13)CO2 [Example 20, 3-{[3-(1H-Indol-3-yl)-propylamino]methyl}-2,3-dihydro-benzo[1,4]dioxin-6-ol] | 
18 | 0.76 nM | 5.8 nM | CS(=O)(=O)Nc1ccc2c(c1)O[C@@H](CNCCCc1c[nH]c3ccccc13)CO2 [Example 21, N-(3-{[3-(1H-Indol-3-yl)-propylamino]methyl}-2,3-dihydro-benzo[1,4]dioxin-6-yl)-methanesulfonamide] | 
19 |  |  | O=C1c2ccccc2S(=O)(=O)N1CCCCN1CCN(c2ncccn2)CC1 [ipsapirone] | anxiolytic and antidepressant activity in clinical trials (in words) [3]: demonstrated both anxiolytic and antidepressant activity in clinical trials; affinity for the 5-HT1A serotonin receptor subtype (in words) [4]: potent affinity
20 | 0.39 nM | 1.94 nM | COc1ccc2[nH]cc(CCCCNCC3COc4ccc(O)cc4O3)c2c1 (centres unmarked) [Example 10, 3-{[4-(5-Methoxy-1H-indol-3-yl)-butylamino]methyl}-2,3-dihydrobenzo[1,4]dioxin-6-ol] | 
21 |  |  | O=C1CC2(CCCC2)CC(=O)N1CCCCN1CCN(c2ncccn2)CC1 [buspirone] | affinity for the 5-HT1A serotonin receptor subtype (in words) [4]: potent affinity
22 | 18.4 nM | 3.95 nM | Fc1ccc2[nH]cc(CCCCNCC3COc4ccccc4O3)c2c1 (centres unmarked) [Example 18, (2,3-Dihydro-benzo[1,4]dioxin-2-ylmethyl)-[4-(5-fluoro-1H-indol-3-yl)-butyl]-amine] | 
23 |  |  | CNCCC(Oc1ccc(C(F)(F)F)cc1)c1ccccc1 (centres unmarked) [fluoxetine, reference compound] | IC50 [2]: 71 nM
24 | 72 nM | 5.5 nM | COc1ccc2c(c1)OC(CNCCCCc1c[nH]c3ccc(F)cc13)CO2 (centres unmarked) [Example 19, [4-(5-Fluoro-1H-indole-3-yl)-butyl]-(7-methoxy-2,3-dihydro-benzo[1,4]dioxin-2-ylmethyl)-amine] | 
25 | 102 nM | 8.05 nM | c1ccc(COc2ccc3[nH]cc(CCCNCC4COc5ccccc5O4)c3c2)cc1 (centres unmarked) [Example 4, [3-(5-Benzyloxy-1H-indol-3-yl)-propyl]-(2,3-dihydro-benzo[1,4]dioxin-2-ylmethyl)-amine] | 
26 |  |  | CC1(C)CC(=O)N(CCCCN2CCN(c3ncccn3)CC2)C(=O)C1 [gepirone] | anxiolytic and antidepressant activity in clinical trials (in words) [3]: demonstrated both anxiolytic and antidepressant activity in clinical trials; affinity for the 5-HT1A serotonin receptor subtype (in words) [4]: potent affinity

Row | SMILES | IC50 (dopamine D2 receptor) | IC50 [1] | further results
27 | Fc1ccc2[nH]cc(CCCNCC3COc4ccccc4O3)c2c1 (centres unmarked) [Example 13, (2,3-Dihydro-benzo[1,4]dioxin-2-ylmethyl)-[3-(5-fluoro-1H-indol-3-yl)-propyl]-amine] | 8.13 nM | 0.12 nM | IC50 [2]: 154 nM
28 | COc1ccc2[nH]cc(CCCNCC3COc4ccccc4O3)c2c1 (centres unmarked) [Example 12, (2.3-Dihydro-benzo[1,4]dioxin-2-ylmethyl)-[3-(5-methoxy-1H-indol-3-yl)-propyl]-amine] | 1.55 nM | 0.1 nM | IC50 [2]: 2380 nM
29 | COc1ccc2c(c1)OC(CNCCCCc1c[nH]c3ccc(OC)cc13)CO2 (centres unmarked) [Example 9, (7-Methoxy-2,3-dihydro-benzo[1,4]dioxin-2-ylmethyl)-[4-(5-methoxy-1 H-indol-3-yl)-butyl]-amine] | 64 nM | 0.8 nM | IC50 [2]: 738 nM
30 | CS(=O)(=O)Nc1ccc2c(c1)OC(CNCCCCc1c[nH]c3ccccc13)CO2 (centres unmarked) [Example 11, N-(3-{[4-(1 H-Indol-3-yl)-butylamino]-methyl}-2,3-dihydro-benzo[1,4]dioxin-6-yl)-methanesulfonamide] | 2.37 nM | 3.89 nM | IC50 [2]: 13.5 nM
31 | Oc1ccc2[nH]cc(CCCNCC3COc4ccccc4O3)c2c1 (centres unmarked) [Example 5, 3-{3-[(2,3-Dihydro-benzo[1,4]dioxin-2-ylmethyl)-amino]-propyl}-1H-indol-5-o] | 6.5 nM | 0.06 nM | IC50 [2]: 52 nM
